Results as given in the supplement of paper PMC11061612.

Experiments:
Test in all cases: Bliss excess, mean over the matrix (fraction); higher = more synergy
[1] = system: T84 (Colorectal Carcinoma)
Method in brief: (§1)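 After 24 hours at 37°C and 5% CO2 in 1536-well plates, cells in DMEM/F12 or RPMI plus 10% FBS received two-drug dose matrices for 72 hours. Viability came from CellTiter-Glo 2.0 luminescence and was scaled as inhibition, anchored at 0 by vehicle wells and at 1 by blank wells. Combination Emax is taken as the second-highest inhibition in the matrix, and Bliss excess as the observed combination effect less EA + EB − EA·EB, with EA and EB the single-agent effects.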

[2] = system: MDA-MB-415 (Breast Carcinoma)
Method in brief: as §1

[3] = system: BxPC-3 (Pancreatic Carcinoma)
Method in brief: as §1

[4] = system: MS-1 (Small Cell Lung Carcinoma)
Method in brief: as §1

[5] = system: COR-L88 (Small Cell Lung Carcinoma)
Method in brief: as §1

[6] = system: CPC-N (Small Cell Lung Carcinoma)
Method in brief: as §1

[7] = system: C-33-A (Cervical Carcinoma)
Method in brief: as §1

[8] = system: SK-CO-1 (Colorectal Carcinoma)
Method in brief: as §1

[9] = system: LS-1034 (Colorectal Carcinoma)
Method in brief: as §1

ES6 (Ewing's Sarcoma) = system: ES6 (Ewing's Sarcoma)
Method in brief: as §1

[10] = system: NCI-H3118 (Head and Neck Carcinoma)
Method in brief: as §1

NCI-H226 (Mesothelioma) = system: NCI-H226 (Mesothelioma)
Method in brief: as §1

[11] = system: SNU-423 (Hepatocellular Carcinoma)
Method in brief: as §1

[12] = system: LCLC-103H (Non-Small Cell Lung Carcinoma)
Method in brief: as §1

[13] = system: SKG-IIIa (Cervical Carcinoma)
Method in brief: as §1

[14] = system: HPAF-II (Pancreatic Carcinoma)
Method in brief: as §1

IST-MEL1 (Melanoma) = system: IST-MEL1 (Melanoma)
Method in brief: as §1

[15] = system: MONO-MAC-6 (Acute Myeloid Leukemia)
Method in brief: as §1

[16] = system: SCC-4 (Oral Cavity Carcinoma)
Method in brief: as §1

KALS-1 (Glioblastoma) = system: KALS-1 (Glioblastoma)
Method in brief: as §1

Compound	Bliss excess [1]	Bliss excess [2]	Bliss excess [3]	Bliss excess [4]	Bliss excess [5]	Bliss excess [6]	Bliss excess [7]	Bliss excess [8]	Bliss excess [9]	Bliss excess (ES6 (Ewing's Sarcoma))	Bliss excess [10]	Bliss excess (NCI-H226 (Mesothelioma))	Bliss excess [11]	Bliss excess [12]	Bliss excess [13]	Bliss excess [14]	Bliss excess (IST-MEL1 (Melanoma))	Bliss excess [15]	Bliss excess [16]	Bliss excess (KALS-1 (Glioblastoma))
Cc1cc2ncnn2cc1Nc1ncc2c(n1)n(C1CCOCC1)c(=O)n2C [AZD7648] + COc1cc([C@@H]2c3cc4c(cc3[C@@H](O[C@@H]3O[C@@H]5CO[C@@H](C)O[C@H]5[C@H](O)[C@H]3O)[C@H]3COC(=O)[C@H]23)OCO4)cc(OC)c1O [Etoposide] (first compound max 10 µM, 7x7, partner max 10 µM)	-0.0105	0.0025	-0.0254	0.0655	-0.0241	0.0611	0.0997	0.0429	-0.0205	-0.0009	0.0669	0.0215	0.0551	0.0526	0.0558	0.0098	0.0192	0.159	0.0043	0.101
N#Cc1cnc(Nc2cc(NC[C@H]3CNCCO3)c(C(F)(F)F)cn2)cn1 [SRA737] + Nc1ccn([C@@H]2O[C@H](CO)[C@@H](O)C2(F)F)c(=O)n1 [Gemcitabine] (first compound max 10 µM, 7x7, partner max 0.3 µM)	0.0819	0.115	-0.0421	0.0566	-0.0293	0.035	0.0954	0.0698	0.145	-0.0212	0.0007	0.0349	0.0518	0.117	0.13	0.0843	-0.0023	0.0489		0.0597
C[C@@H](Oc1cc(-c2cnn(C3CCNCC3)c2)cnc1N)c1c(Cl)ccc(F)c1Cl [Crizotinib] + CC1=C(C(=CC=C1)Cl)NC(=O)C2=CN=C(S2)NC3=CC(=NC(=N3)C)N4CCN(CC4)CCO [Dasatinib] (first compound max 10 µM, 7x7, partner max 2 µM)	0.0051	-0.0332	0.035	-0.118	-0.0039	-0.0989	-0.02	0.0048	-0.0512	-0.0119	0.0187	-0.0295	-0.0038	0.01	0.0166	0.0578	0.0781	0.014	0.0487	0.0652
N#Cc1cnc(Nc2cc(NC[C@H]3CNCCO3)c(C(F)(F)F)cn2)cn1 [SRA737] + O=c1[nH]cc(F)c(=O)[nH]1 [5-Fluorouracil] (first compound max 10 µM, 7x7, partner max 20 µM)	0.0458	0.057	-0.0019	-0.0821	-0.0088	-0.036	0.0006	0.0188	0.0936	-0.0508	0.0141	-0.0281	0.0005	0.0215	0.0284	0.036	-0.0223	0.0181	0.0952	0.0085
Cc1c2c(nn1C)CSCc1cc(n(C)n1)CSc1cc(c3ccccc3c1)OCCCc1c(C(=O)O)n(C)c3c-2c(Cl)ccc13 [AZD5991] + Nc1ccn([C@@H]2O[C@H](CO)[C@@H](O)C2(F)F)c(=O)n1 [Gemcitabine] (first compound max 1 µM, 7x7, partner max 0.3 µM)	-0.0187	-0.0407	0.0052	-0.0371	0.0854	-0.0387	0.0332	-0.0284	-0.0473	-0.002	-0.0107	-0.024	-0.0672	-0.0722	-0.0271	-0.0059	-0.0045	-0.0133	-0.0333	-0.0036
O=C(c1cc(Cc2n[nH]c(=O)c3ccccc23)ccc1F)N1CCN(C(=O)C2CC2)CC1 [Olaparib] + COc1nnc2ccc(N3CCC(c4ccc(OCCN5CCN(C)C(=O)[C@H]5C)cc4)CC3)nn12 [AZD5153] (first compound max 10 µM, 7x7, partner max 1 µM)	-0.0698	-0.0222	-0.106	-0.0426	-0.0582	-0.0557	-0.0461	-0.0441	-0.0339	-0.0941	-0.0669	-0.0749	-0.0546	-0.0369	-0.0383	0.0018	-0.045	-0.0333	-0.0472	-0.0141
C=CCn1c(=O)c2cnc(Nc3ccc(N4CCN(C)CC4)cc3)nc2n1-c1cccc(C(C)(C)O)n1 [AZD1775] + CCc1c2c(nc3ccc(O)cc13)-c1cc3c(c(=O)n1C2)COC(=O)[C@]3(O)CC [SN-38] (first compound max 1 µM, partner max 0.3 µM)	0.0598	-0.009	-0.101	-0.0292	-0.0248	0.0523	0.0561	-0.0355	0.0498	-0.0995	-0.0284	-0.0755	-0.0644	0.0015	-0.0319	-0.0218	-0.0827	-0.0158	-0.0732	0.0642
N#Cc1cnc(Nc2cc(NC[C@H]3CNCCO3)c(C(F)(F)F)cn2)cn1 [SRA737] + C=CCn1c(=O)c2cnc(Nc3ccc(N4CCN(C)CC4)cc3)nc2n1-c1cccc(C(C)(C)O)n1 [AZD1775] (first compound max 10 µM, partner max 1 µM)	0.0022	0.0133	0.0061	0.078	0.111	0.0589	0.0919	0.0306	0.142	0.0022	0.0583	-0.0457	0.0786	0.0146	-0.031	0.0176	0.046	0.0824	0.0374	0.0439
CS(=O)(=O)CCNCc1ccc(-c2ccc3ncnc(Nc4ccc(OCc5cccc(F)c5)c(Cl)c4)c3c2)o1 [Lapatinib] + NC1(c2ccc(-c3nc4ccn5c(=O)[nH]nc5c4cc3-c3ccccc3)cc2)CCC1 [MK-2206] (first compound max 10 µM, 7x7, partner max 10 µM)	0.0453	0.0306	0.0263	0.0368	0.0151	-0.0202	0.0295	0.0289	0.0301	-0.0408	0.0618	-0.0287	0.0232	-0.0428	0.0359	0.0089	0.0095	0.0302	0.0365	-0.004
CN(CCO)CC[C@H](CSc1ccccc1)Nc1ccc(S(=O)(=O)NC(=O)c2ccc(N3CCC([C@@H](O)c4ccccc4-c4ccc(Cl)cc4)CC3)cc2)cc1S(=O)(=O)C(F)(F)F [AZD4320] + CS(=O)(=O)CCNCc1ccc(-c2ccc3ncnc(Nc4ccc(OCc5cccc(F)c5)c(Cl)c4)c3c2)o1 [Lapatinib] (first compound max 1 µM, 7x7, partner max 10 µM)	-0.0061	0.0355	-0.025	0.068	0.0911	0.052	0.0074	0.0785	0.0441	-0.0017	0.0041	-0.0437	0.017	-0.0224	-0.0081	0.031	-0.0011	0.103	0.0692	0.0176
CS(=O)(=O)CCNCc1ccc(-c2ccc3ncnc(Nc4ccc(OCc5cccc(F)c5)c(Cl)c4)c3c2)o1 [Lapatinib] + Cn1cnc2c(F)c(Nc3ccc(Br)cc3Cl)c(C(=O)NOCCO)cc21 [Selumetinib] (first compound max 10 µM, 7x7, partner max 10 µM)	0.058	-0.0575	0.0703	-0.0277	-0.0301	-0.0085	0.0282	0.0335	-0.0089	-0.0159	0.0206	-0.0542	-0.0083	-0.0744	0.001	0.109	0.0279	0.0017	0.0318	0.0025
C[C@@H]1COCCN1c1cc(C2([S@](C)(=N)=O)CC2)nc(-c2ccnc3[nH]ccc23)n1 [AZD6738] + Nc1ccn([C@@H]2O[C@H](CO)[C@@H](O)C2(F)F)c(=O)n1 [Gemcitabine] (first compound max 10 µM, 7x7, partner max 0.3 µM)	0.0477	0.065	0.008	0.0014	0.105	0.0021	0.032	0.0365	0.0853	-0.0072	0.0134	0.041	0.0969	0.0863	0.0657		0.0314	0.0427	0.0044	0.0483
C=CCn1c(=O)c2cnc(Nc3ccc(N4CCN(C)CC4)cc3)nc2n1-c1cccc(C(C)(C)O)n1 [AZD1775] + Nc1ccn([C@@H]2O[C@H](CO)[C@@H](O)C2(F)F)c(=O)n1 [Gemcitabine] (first compound max 1 µM, partner max 0.3 µM)	0.0564	0.0228	-0.029	-0.0721	0.0144		0.0713	-0.0262	0.0159	-0.0385	-0.0638	0.0067	-0.0538	0.0858	0.0393	0.0046	0.0144	0.0322	-0.0574	0.0299
